{"source": "the supplement of paper PMC10307832", "test_in_all_cases": "relative viability (nuclei count vs DMSO), 5 days (fraction); higher = more cells survive", "key": {"NCI-H838": {"system": "NCI-H838", "procedure,_shortened": "(§1)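 Five library-drug doses in √10 steps were combined with a fixed anchor-drug dose, or a single drug was given alone, by pin tool to lung cancer cell lines in 1536-well plates the day after seeding. Nuclei were stained and counted after 5 days. Relative viability is the nuclei count in treated wells over that in vehicle wells, taken as the median of duplicate plates.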"}, "SK-MES-1": {"system": "SK-MES-1", "procedure,_shortened": "as §1"}, "NCI-H1792": {"system": "NCI-H1792", "procedure,_shortened": "as §1"}, "UMC-11": {"system": "UMC-11", "procedure,_shortened": "as §1"}, "NCI-H358": {"system": "NCI-H358", "procedure,_shortened": "as §1"}, "NCI-H2228": {"system": "NCI-H2228", "procedure,_shortened": "as §1"}, "NCI-H1915": {"system": "NCI-H1915", "procedure,_shortened": "as §1"}, "LCLC-97TM1": {"system": "LCLC-97TM1", "procedure,_shortened": "as §1"}, "NCI-H1355": {"system": "NCI-H1355", "procedure,_shortened": "as §1"}, "NCI-H322M": {"system": "NCI-H322M", "procedure,_shortened": "as §1"}, "PC-3 [JPC-3]": {"system": "PC-3 [JPC-3]", "procedure,_shortened": "as §1"}, "NCI-H1395": {"system": "NCI-H1395", "procedure,_shortened": "as §1"}, "LK-2": {"system": "LK-2", "procedure,_shortened": "as §1"}, "ABC-1": {"system": "ABC-1", "procedure,_shortened": "as §1"}, "NCI-H661": {"system": "NCI-H661", "procedure,_shortened": "as §1"}, "H3255": {"system": "H3255", "procedure,_shortened": "as §1"}, "NCI-H1651": {"system": "NCI-H1651", "procedure,_shortened": "as §1"}, "NCI-H2087": {"system": "NCI-H2087", "procedure,_shortened": "as §1"}, "NCI-H1563": {"system": "NCI-H1563", "procedure,_shortened": "as §1"}, "A-427": {"system": "A-427", "procedure,_shortened": "as §1"}, "NCI-H2085": {"system": "NCI-H2085", "procedure,_shortened": "as §1"}, "CAL-12T": {"system": "CAL-12T", "procedure,_shortened": "as §1"}, "LC-2-ad": {"system": "LC-2-ad", "procedure,_shortened": "as §1"}, "RERF-LC-KJ": {"system": "RERF-LC-KJ", "procedure,_shortened": "as §1"}, "NCI-H1666": {"system": "NCI-H1666", "procedure,_shortened": "as §1"}}, "data": [{"smiles": "CCCCCCCCCCCC1=C(O)C(=O)C=C(O)C1=O", "note": "[Embelin] + CS(=O)(=O)CCNCc1ccc(-c2ccc3ncnc(Nc4ccc(OCc5cccc(F)c5)c(Cl)c4)c3c2)o1 [Lapatinib] (partner 2 µM)", "values": [{"measurement": "relative viability", "setting": "NCI-H838; first compound 0.08 µM", "result": 1.07}, {"measurement": "relative viability", "setting": "NCI-H838; first compound 0.8 µM", "result": 1.31}, {"measurement": "relative viability", "setting": "NCI-H838; first compound 2.53 µM", "result": 1.02}, {"measurement": "relative viability", "setting": "NCI-H838; first compound 8 µM", "result": 1.14}, {"measurement": "relative viability", "setting": "SK-MES-1; first compound 0.08 µM", "result": 0.496}, {"measurement": "relative viability", "setting": "SK-MES-1; first compound 0.8 µM", "result": 0.496}, {"measurement": "relative viability", "setting": "SK-MES-1; first compound 2.53 µM", "result": 0.516}, {"measurement": "relative viability", "setting": "SK-MES-1; first compound 8 µM", "result": 0.477}, {"measurement": "relative viability", "setting": "NCI-H1792; first compound 0.08 µM", "result": 0.917}, {"measurement": "relative viability", "setting": "NCI-H1792; first compound 0.8 µM", "result": 0.877}, {"measurement": "relative viability", "setting": "NCI-H1792; first compound 2.53 µM", "result": 1.09}, {"measurement": "relative viability", "setting": "NCI-H1792; first compound 8 µM", "result": 1.06}, {"measurement": "relative viability", "setting": "UMC-11; first compound 0.08 µM", "result": 1.12}, {"measurement": "relative viability", "setting": "UMC-11; first compound 0.8 µM", "result": 1.17}, {"measurement": "relative viability", "setting": "UMC-11; first compound 2.53 µM", "result": 1.08}, {"measurement": "relative viability", "setting": "UMC-11; first compound 8 µM", "result": 0.877}, {"measurement": "relative viability", "setting": "NCI-H358; first compound 0.08 µM", "result": 0.452}, {"measurement": "relative viability", "setting": "NCI-H358; first compound 0.8 µM", "result": 0.525}, {"measurement": "relative viability", "setting": "NCI-H358; first compound 2.53 µM", "result": 0.47}, {"measurement": "relative viability", "setting": "NCI-H358; first compound 8 µM", "result": 0.384}, {"measurement": "relative viability", "setting": "NCI-H2228; first compound 0.08 µM", "result": 1.36}, {"measurement": "relative viability", "setting": "NCI-H2228; first compound 0.8 µM", "result": 1.1}, {"measurement": "relative viability", "setting": "NCI-H2228; first compound 2.53 µM", "result": 1.41}, {"measurement": "relative viability", "setting": "NCI-H2228; first compound 8 µM", "result": 1.08}, {"measurement": "relative viability", "setting": "NCI-H1915; first compound 0.08 µM", "result": 0.96}, {"measurement": "relative viability", "setting": "NCI-H1915; first compound 0.8 µM", "result": 0.984}, {"measurement": "relative viability", "setting": "NCI-H1915; first compound 2.53 µM", "result": 1.08}, {"measurement": "relative viability", "setting": "NCI-H1915; first compound 8 µM", "result": 0.956}, {"measurement": "relative viability", "setting": "LCLC-97TM1; first compound 0.8 µM", "result": 1.48}, {"measurement": "relative viability", "setting": "LCLC-97TM1; first compound 2.53 µM", "result": 0.823}, {"measurement": "relative viability", "setting": "LCLC-97TM1; first compound 8 µM", "result": 0.86}, {"measurement": "relative viability", "setting": "NCI-H1355; first compound 0.08 µM", "result": 0.878}, {"measurement": "relative viability", "setting": "NCI-H1355; first compound 0.8 µM", "result": 1.15}, {"measurement": "relative viability", "setting": "NCI-H1355; first compound 2.53 µM", "result": 1.07}, {"measurement": "relative viability", "setting": "NCI-H1355; first compound 8 µM", "result": 0.686}, {"measurement": "relative viability", "setting": "NCI-H322M; first compound 0.08 µM", "result": 0.548}, {"measurement": "relative viability", "setting": "NCI-H322M; first compound 0.8 µM", "result": 0.614}, {"measurement": "relative viability", "setting": "NCI-H322M; first compound 2.53 µM", "result": 0.726}, {"measurement": "relative viability", "setting": "NCI-H322M; first compound 8 µM", "result": 0.561}, {"measurement": "relative viability", "setting": "PC-3 [JPC-3]; first compound 0.08 µM", "result": 0.428}, {"measurement": "relative viability", "setting": "PC-3 [JPC-3]; first compound 0.8 µM", "result": 0.473}, {"measurement": "relative viability", "setting": "PC-3 [JPC-3]; first compound 2.53 µM", "result": 0.477}, {"measurement": "relative viability", "setting": "PC-3 [JPC-3]; first compound 8 µM", "result": 0.406}, {"measurement": "relative viability", "setting": "NCI-H1395; first compound 0.08 µM", "result": 1.11}, {"measurement": "relative viability", "setting": "NCI-H1395; first compound 0.8 µM", "result": 1.27}, {"measurement": "relative viability", "setting": "NCI-H1395; first compound 2.53 µM", "result": 0.99}, {"measurement": "relative viability", "setting": "NCI-H1395; first compound 8 µM", "result": 0.754}, {"measurement": "relative viability", "setting": "LK-2; first compound 0.08 µM", "result": 0.906}, {"measurement": "relative viability", "setting": "LK-2; first compound 0.8 µM", "result": 0.991}, {"measurement": "relative viability", "setting": "LK-2; first compound 2.53 µM", "result": 1.24}, {"measurement": "relative viability", "setting": "LK-2; first compound 8 µM", "result": 0.825}, {"measurement": "relative viability", "setting": "ABC-1; first compound 0.08 µM", "result": 1.28}, {"measurement": "relative viability", "setting": "ABC-1; first compound 0.8 µM", "result": 1.7}, {"measurement": "relative viability", "setting": "ABC-1; first compound 2.53 µM", "result": 1.25}, {"measurement": "relative viability", "setting": "ABC-1; first compound 8 µM", "result": 1.1}, {"measurement": "relative viability", "setting": "NCI-H661; first compound 0.08 µM", "result": 0.467}, {"measurement": "relative viability", "setting": "NCI-H661; first compound 0.8 µM", "result": 0.596}, {"measurement": "relative viability", "setting": "NCI-H661; first compound 2.53 µM", "result": 0.545}, {"measurement": "relative viability", "setting": "NCI-H661; first compound 8 µM", "result": 0.48}, {"measurement": "relative viability", "setting": "H3255; first compound 0.08 µM", "result": 0.225}, {"measurement": "relative viability", "setting": "H3255; first compound 0.8 µM", "result": 0.281}, {"measurement": "relative viability", "setting": "H3255; first compound 2.53 µM", "result": 0.234}, {"measurement": "relative viability", "setting": "H3255; first compound 8 µM", "result": 0.281}, {"measurement": "relative viability", "setting": "NCI-H1651; first compound 0.08 µM", "result": 0.789}, {"measurement": "relative viability", "setting": "NCI-H1651; first compound 0.8 µM", "result": 0.974}, {"measurement": "relative viability", "setting": "NCI-H1651; first compound 2.53 µM", "result": 0.99}, {"measurement": "relative viability", "setting": "NCI-H1651; first compound 8 µM", "result": 0.824}, {"measurement": "relative viability", "setting": "NCI-H2087; first compound 0.08 µM", "result": 1.07}, {"measurement": "relative viability", "setting": "NCI-H2087; first compound 0.8 µM", "result": 1.02}, {"measurement": "relative viability", "setting": "NCI-H2087; first compound 2.53 µM", "result": 1.2}, {"measurement": "relative viability", "setting": "NCI-H2087; first compound 8 µM", "result": 1.23}, {"measurement": "relative viability", "setting": "NCI-H1563; first compound 0.08 µM", "result": 0.869}, {"measurement": "relative viability", "setting": "NCI-H1563; first compound 0.8 µM", "result": 1.11}, {"measurement": "relative viability", "setting": "NCI-H1563; first compound 2.53 µM", "result": 0.838}, {"measurement": "relative viability", "setting": "NCI-H1563; first compound 8 µM", "result": 0.839}, {"measurement": "relative viability", "setting": "A-427; first compound 0.08 µM", "result": 1.07}, {"measurement": "relative viability", "setting": "A-427; first compound 0.8 µM", "result": 1.05}, {"measurement": "relative viability", "setting": "A-427; first compound 2.53 µM", "result": 1.2}, {"measurement": "relative viability", "setting": "A-427; first compound 8 µM", "result": 0.947}, {"measurement": "relative viability", "setting": "NCI-H2085; first compound 0.08 µM", "result": 0.743}, {"measurement": "relative viability", "setting": "NCI-H2085; first compound 0.8 µM", "result": 0.92}, {"measurement": "relative viability", "setting": "NCI-H2085; first compound 2.53 µM", "result": 0.778}, {"measurement": "relative viability", "setting": "NCI-H2085; first compound 8 µM", "result": 0.731}, {"measurement": "relative viability", "setting": "CAL-12T; first compound 0.08 µM", "result": 0.757}, {"measurement": "relative viability", "setting": "CAL-12T; first compound 0.8 µM", "result": 0.878}, {"measurement": "relative viability", "setting": "CAL-12T; first compound 8 µM", "result": 0.703}, {"measurement": "relative viability", "setting": "LC-2-ad; first compound 0.08 µM", "result": 0.96}, {"measurement": "relative viability", "setting": "LC-2-ad; first compound 0.8 µM", "result": 1.16}, {"measurement": "relative viability", "setting": "LC-2-ad; first compound 2.53 µM", "result": 1.07}, {"measurement": "relative viability", "setting": "LC-2-ad; first compound 8 µM", "result": 0.983}, {"measurement": "relative viability", "setting": "RERF-LC-KJ; first compound 0.08 µM", "result": 0.81}, {"measurement": "relative viability", "setting": "RERF-LC-KJ; first compound 0.8 µM", "result": 0.935}, {"measurement": "relative viability", "setting": "RERF-LC-KJ; first compound 2.53 µM", "result": 0.991}, {"measurement": "relative viability", "setting": "RERF-LC-KJ; first compound 8 µM", "result": 0.84}, {"measurement": "relative viability", "setting": "NCI-H1666; first compound 0.08 µM", "result": 0.603}, {"measurement": "relative viability", "setting": "NCI-H1666; first compound 0.8 µM", "result": 0.795}, {"measurement": "relative viability", "setting": "NCI-H1666; first compound 2.53 µM", "result": 0.761}, {"measurement": "relative viability", "setting": "NCI-H1666; first compound 8 µM", "result": 0.616}]}]}
